This is an account of results in PubChem BioAssay AID328 (DTP/NCI, 2004).

Values joined by “and” are separate entries in the source; they are usually repeats but may differ in a detail not shown here. Identical values can stand only once. Toxic doses and inconclusive results are not listed.

This experiment concerns BDF1 mice, P388 leukemia ip, median survival T/C. Put plainly: NCI In Vivo Anticancer Drug Screen. Data for tumor model P388 Leukemia (intraperitoneal) in B6D2F1 (BDF1) mice. Conditions: endpoint: median survival time, higher = longer survival. The method in brief: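 In tumour-bearing mice, survival after compound treatment is set against the vehicle group and given as a quotient.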

Setting [1] is: dose: 50.0 mg/kg/injection, schedule: Q01DX009 (ip), vehicle: water.
Setting [2] is: dose: 100.0 mg/kg/injection, schedule: Q01DX009 (ip), vehicle: water.
Where [3] appears, read: dose: 200.0 mg/kg/injection, schedule: Q01DX009 (ip), vehicle: water.
Where [4] appears, read: dose: 50.0 mg/kg/injection, schedule: Q01DX009 (ip), vehicle: saline with Tween-80.
[5] abbreviates: dose: 100.0 mg/kg/injection, schedule: Q01DX009 (ip), vehicle: saline with Tween-80.
[6] abbreviates: dose: 200.0 mg/kg/injection, schedule: Q01DX009 (ip), vehicle: saline with Tween-80.
[7] abbreviates: dose: 50.0 mg/kg/injection, schedule: Q01DX009 (ip), vehicle: saline.
The mark [8] stands for this setting: dose: 100.0 mg/kg/injection, schedule: Q01DX009 (ip), vehicle: saline.
The mark [9] stands for this setting: dose: 50.0 mg/kg/injection, schedule: Q04DX003 (ip), vehicle: saline with Tween-80.
[10] abbreviates: dose: 100.0 mg/kg/injection, schedule: Q04DX003 (ip), vehicle: saline with Tween-80.
[11] abbreviates: dose: 200.0 mg/kg/injection, schedule: Q04DX003 (ip), vehicle: saline with Tween-80.
The mark [12] stands for this setting: dose: 25.0 mg/kg/injection, schedule: Q01DX009 (ip), vehicle: saline with Tween-80.

On to `O=C1NC(c2cccc3ccccc23)Nc2ccccc21` (stereo not drawn), for which the T/C runs as follows: under setting [1], 169 % of control; under setting [2], 200 % of control; under setting [3], 104 % of control.

As to `CC(=O)c1ccccc1OS(=O)(=O)c1ccc([N+](=O)[O-])cc1`, the T/C is, setting by setting: (dose: 100.0 mg/kg/injection, schedule: Q01DX009 (ip), vehicle: saline sonified) 95 % of control; (dose: 100.0 mg/kg/injection, schedule: Q04DX003 (ip), vehicle: saline sonified) 100 % of control; (dose: 200.0 mg/kg/injection, schedule: Q01DX009 (ip), vehicle: saline sonified) 104 % of control; (dose: 200.0 mg/kg/injection, schedule: Q04DX003 (ip), vehicle: saline sonified) 90 % of control; (dose: 400.0 mg/kg/injection, schedule: Q04DX003 (ip), vehicle: saline sonified) 100 % of control.

Consider `COc1ccc(N=Cc2ccc3c(c2)OCO3)cc1`, for which the T/C is 98 % of control under setting [4]; 100 % of control under setting [5]; 105 % of control under setting [6]; 98 % of control (dose: 400.0 mg/kg/injection, schedule: Q01DX009 (ip), vehicle: saline with Tween-80).

Consider `O=C(O)c1cc(O)c(O)c(O)c1`, for which the T/C reads like this: (dose: 1.25 mg/kg/injection, schedule: Q01DX009 (ip), vehicle: saline) 90 % of control; (dose: 2.5 mg/kg/injection, schedule: Q01DX009 (ip), vehicle: saline) 95 % of control; (dose: 5.0 mg/kg/injection, schedule: Q01DX009 (ip), vehicle: saline) 95 % of control; (dose: 10.0 mg/kg/injection, schedule: Q01DX009 (ip), vehicle: saline) 115 % of control; (dose: 10.0 mg/kg/injection, schedule: Q01DX010 (ip), vehicle: saline) 110 % of control; (dose: 20.0 mg/kg/injection, schedule: Q01DX010 (ip), vehicle: saline) 100 % of control. Besides, the T/C reads like this: (dose: 40.0 mg/kg/injection, schedule: Q01DX010 (ip), vehicle: saline) 90 % of control; under setting [7], 100 % of control; under setting [8], 100 % of control; (dose: 200.0 mg/kg/injection, schedule: Q01DX009 (ip), vehicle: saline) 104 % of control.

Consider `c1ccc(CNCCOB(OCCNCc2ccccc2)OCCNCc2ccccc2)cc1`, for which the T/C reads like this: (dose: 100.0 mg/kg/injection, schedule: Q04DX003 (ip), vehicle: Klucel (hydroxypropylcellulose) (HPC)) 100 % of control; (dose: 200.0 mg/kg/injection, schedule: Q04DX003 (ip), vehicle: Klucel (hydroxypropylcellulose) (HPC)) 104 % of control; (dose: 400.0 mg/kg/injection, schedule: Q04DX003 (ip), vehicle: Klucel (hydroxypropylcellulose) (HPC)) 100 % of control.

With `CNC(=S)N/N=C(/C)CCC(=O)O`, the T/C is, setting by setting: (dose: 6.75 mg/kg/injection, schedule: Q01DX009 (ip), vehicle: saline with Tween-80) 87 % of control; (dose: 13.5 mg/kg/injection, schedule: Q01DX009 (ip), vehicle: saline with Tween-80) 88 % of control; (dose: 27.0 mg/kg/injection, schedule: Q01DX009 (ip), vehicle: saline with Tween-80) 86 % of control.

In the case of `CCc1nnc2sc3c(Cl)c4nn5c(CC)nnc5sc4c(Cl)c3nn12`, the T/C was 114 % of control under setting [4], 118 % of control under setting [5] and 98 % of control under setting [6].

As for `CC(=O)c1ccccc1C`, the T/C was 100 % of control under setting [4]; 100 % of control under setting [9]; 109 % of control under setting [5]; 100 % of control under setting [10]; 95 % of control under setting [6]; 100 % of control under setting [11].

As for `Cn1c(=O)oc2ccc(Cl)cc21`, the T/C is 122 % of control under setting [12], 115 % of control under setting [4] and 91 % of control under setting [6].

As to `O=C(NC1CSSC1)C(Cc1ccccc1)N1C(=O)c2ccccc2C1=O` (stereo not drawn), the T/C is 104 % of control (dose: 25.0 mg/kg/injection, schedule: Q01DX009 (ip), vehicle: water); 90 % of control (dose: 25.0 mg/kg/injection, schedule: Q04DX003 (ip), vehicle: water); 95 % of control under setting [1]; 107 % of control (dose: 50.0 mg/kg/injection, schedule: Q04DX003 (ip), vehicle: water); 108 % of control under setting [2]; 98 % of control (dose: 100.0 mg/kg/injection, schedule: Q04DX003 (ip), vehicle: water). The T/C is 108 % of control under setting [3]; 100 % of control (dose: 200.0 mg/kg/injection, schedule: Q04DX003 (ip), vehicle: water); 100 % of control (dose: 400.0 mg/kg/injection, schedule: Q01DX009 (ip), vehicle: water); 98 % of control (dose: 400.0 mg/kg/injection, schedule: Q04DX003 (ip), vehicle: water).

As for `CCCCN=C(N)N=C(N)N`, the T/C is, setting by setting: under setting [7], 105 % of control; under setting [8], 108 % of control.

On to `N#CCOC(=O)C1(NC(=O)c2ccccc2)CC1c1ccccc1` (stereo not drawn), for which the T/C is 95 % of control (dose: 25.0 mg/kg/injection, schedule: Q01DX005 (ip), vehicle: saline with Tween-80); 90 % of control (dose: 50.0 mg/kg/injection, schedule: Q01DX005 (ip), vehicle: saline with Tween-80); 92 % of control (dose: 100.0 mg/kg/injection, schedule: Q01DX005 (ip), vehicle: saline with Tween-80).

`CSc1nc2c(N)nc(N)nc2nc1C`: the T/C is 100 % of control under setting [10]; 108 % of control under setting [11]; 108 % of control (dose: 400.0 mg/kg/injection, schedule: Q04DX003 (ip), vehicle: saline with Tween-80).

Take `O=c1cnn(C2OC(CO)C(O)C2O)c(=O)[nH]1` (stereo not drawn): the T/C was 108 % of control and 115 % of control (dose: 12.5 mg/kg/injection, schedule: Q01DX009 (ip), vehicle: Klucel (hydroxypropylcellulose) (HPC)); 123 % of control (dose: 25.0 mg/kg/injection, schedule: Q01DX009 (ip), vehicle: Klucel (hydroxypropylcellulose) (HPC)); 112 % of control (dose: 75.0 mg/kg/injection, schedule: Q01DX009 (ip), vehicle: Klucel (hydroxypropylcellulose) (HPC)); 106 % of control (dose: 150.0 mg/kg/injection, schedule: Q01DX009 (ip), vehicle: Klucel (hydroxypropylcellulose) (HPC)); 111 % of control (dose: 180.0 mg/kg/injection, schedule: Q01DX009 (ip), vehicle: saline); 116 % of control and 122 % of control (dose: 200.0 mg/kg/injection, schedule: Q01DX010 (ip), vehicle: saline). The T/C was 111 % of control (dose: 268.0 mg/kg/injection, schedule: Q01DX009 (ip), vehicle: saline); 106 % of control (dose: 300.0 mg/kg/injection, schedule: Q01DX009 (ip), vehicle: Klucel (hydroxypropylcellulose) (HPC)); 117 % of control (dose: 400.0 mg/kg/injection, schedule: Q01DX009 (ip), vehicle: saline); 154 % of control (dose: 400.0 mg/kg/injection, schedule: Q01DX010 (ip), vehicle: saline); 109 % of control (dose: 600.0 mg/kg/injection, schedule: Q01DX009 (ip), vehicle: saline); 91 % of control (dose: 1200.0 mg/kg/injection, schedule: Q01DX009 (ip), vehicle: Klucel (hydroxypropylcellulose) (HPC)). Moreover, the T/C (dose: 1600.0 mg/kg/injection, schedule: Q01DX010 (ip), vehicle: saline) was 100 % of control.

In the case of `C/C=C1\C[N+]2(C)CCC34c5ccccc5NC32C(O)CC1C4(CO)C(=O)OC` (stereo not drawn), the T/C is 98 % of control (dose: 2.0 mg/kg/injection, schedule: Q01DX009 (ip), vehicle: saline with Tween-80); 93 % of control (dose: 4.0 mg/kg/injection, schedule: Q01DX009 (ip), vehicle: saline with Tween-80); 94 % of control (dose: 8.0 mg/kg/injection, schedule: Q01DX009 (ip), vehicle: saline with Tween-80).

Turning to `C=CCN(CC=C)CCSC(=S)NCCOC`, the T/C under setting [4] was 95 % of control, the T/C under setting [5] is 100 % of control and the T/C under setting [6] is 95 % of control.

Regarding `CC(C)N(C(C)C)S(=O)(=O)c1ccccc1C(O)(c1ccccc1)c1ccccc1`, the T/C is, setting by setting: under setting [12], 90 % of control; under setting [4], 86 % of control; under setting [5], 90 % of control.

Consider `CCCCCC(C)C(=O)CCCC` (stereo not drawn) (tested in a mixture with another compound), for which the T/C was 104 % of control under setting [9], 104 % of control under setting [10] and 100 % of control under setting [11].
